Data on two molecules can be found in BindingDB's records for doi:10.1039/d3md00655g (Henan University, 2024).

Test [1] concerns the target Programmed cell death 1 ligand 1 (Homo sapiens) (UniProt Q9NZQ7). As to the kind of experiment: Inhibition of PD-1/PD-L1 (unknown origin) protein-protein interaction.
For test [2] the target is unchanged. In words: Inhibition of PD-1/PD-L1 (unknown origin) interaction incubated for 15 mins by HTRF assay. On the technique in general: TR-FRET usually uses a lanthanide donor and a delayed reading to cut background.

Programmed cell death 1 ligand 1 (Homo sapiens), sequence (Q9NZQ7 whole entry, looked up): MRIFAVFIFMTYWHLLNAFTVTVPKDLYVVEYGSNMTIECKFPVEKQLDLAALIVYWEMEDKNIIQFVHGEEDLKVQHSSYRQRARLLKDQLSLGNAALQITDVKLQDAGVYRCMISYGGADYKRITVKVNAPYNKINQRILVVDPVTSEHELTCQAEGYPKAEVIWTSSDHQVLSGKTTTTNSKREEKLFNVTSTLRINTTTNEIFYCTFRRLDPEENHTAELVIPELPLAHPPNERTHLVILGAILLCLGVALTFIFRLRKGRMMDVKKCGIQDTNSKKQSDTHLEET

A word on the IC50: it is the midpoint of a concentration-inhibition curve. Low readings indicate inhibition by little substance, high ones a need for much substance. In test [1], `COc1nc(-c2cccc(-c3ccccc3F)c2C)ccc1CNCCC(N)=O` yielded an IC50 of 0.00093 µM.
For the molecule `Cc1c(COc2ccc(CN3CCNCC3)c(OCc3cn(-c4cccc(C#N)c4)nn3)c2)cccc1-c1ccccc1`, it took 8.52 µM to reach half-maximal inhibition in test [2] (IC50).
